Data on 1 compound can be found in patent publication US20090232761A1, “Use of a Composition Comprising Pentane-1, 5-Diol as Deodorant” (priority 2005, published 2009).

This assay is described as follows: Napkin sprayed with pentane-1,5-diol solution, dried, used to remove urine; smell assessed. Particulars: active solutions containing 10% (v/v) and 30% (v/v) sprayed onto disposable napkin, dried at room temperature; control water alone. Details: species or system human being. The source says: Active solutions containing 10% (v/v) and 30% (v/v) pentane-1,5-diol were sprayed onto a disposable napkin until the complete area of the napkin was moistened. The napkin was left at room temperature until the napkin was dry. The napkin was then used to remove urine from a human being. […] As a control was water used alone. The same amount of water and the active solution were used.

For the compound `OCCCCCO` [pentane-1,5-diol], the “smell of urine from the napkin” value was “no smell of urine”.
